The values that follow are results of earlier work, collected in the CATMoS acute toxicity set (Mansouri et al. 2021).

Several values for one entry are separate records, joined by “and”; a condition that tells them apart may be missing. Equal entries are not always repeated.

The series is described as follows: rat acute oral toxicity. The note with it: in vivo.
For the compound `Cc1ncc(CS)c(CO)c1O`, the LD50 (as a rule, the dose expected to kill half of the subjects tested) was 3000 mg/kg.

`COc1ccc2c(c1)OC(C)(C)[C@H](c1ccccc1)[C@H]2c1ccc(OCCBr)cc1`: the LD50 is 500 mg/kg.

`CC(C(=O)O)c1cccc(Oc2ccccc2)c1` (configuration not stated): the LD50 is 800 mg/kg.

As to `CCN(CCO)c1ccc(N=O)c(C)c1`, the LD50 is 336 mg/kg.

In the case of `CCOP(=O)(OCC)N(SN(C)C(=O)ON=C(C)SC)C(C)C`, the LD50 is 100 mg/kg.

For `CSc1ccc(O)cc1C`, the LD50 is 3400 mg/kg.

For the compound `O=[N+]([O-])C(Br)Br`, the LD50 was 86 mg/kg.

Regarding `CC(C)(C)[C@@H](O)/C(=C\c1ccc(Cl)cc1Cl)n1cncn1`, the LD50 was 474 mg/kg.

With `COP(=O)(OC)OC`, the LD50 was 840 mg/kg.

In the case of `CCCCCCCCCCCCCCCC(=O)OC/C=C(C)/C=C/C=C(C)/C=C/C1=C(C)CCCC1(C)C`, the LD50 was 7910 mg/kg.

Take `CC[N+](CC)(CCNC(=O)C(=O)NCC[N+](CC)(CC)Cc1ccccc1Cl)Cc1ccccc1Cl`: the LD50 was 18.5 mg/kg.

On to `Nc1ccc(S(=O)(=O)c2ccc(N)cc2)cc1`, for which the LD50 was 1000 mg/kg.

Regarding `C#CCN(C)Cc1ccccc1`, the LD50 was 250 mg/kg and 300 mg/kg.

As for `CC(=O)NO`, the LD50 is 4800 mg/kg.

Consider `CCc1nccnc1C`, for which the LD50 is 600 mg/kg.

For `CN(C)C(=O)c1cccc(-c2ccccc2)c1O`, the LD50 is 1900 mg/kg.

Regarding `O=[N+]([O-])c1cccc2ccccc12`, the LD50 was 150 mg/kg.

For `Cc1cccc(NC(=O)c2ccccc2C(=O)O)c1`, the LD50 is 5230 mg/kg.

Turning to `Cc1cnc(C)cn1`, the median lethal dose (LD50) was 1020 mg/kg.

Regarding `NCCCN1CCOCC1`, the LD50 is 3560 mg/kg.

On to `CCCCC(CC)COCCO` (configuration not stated), for which the LD50 was 3080 mg/kg.

Turning to `COc1ccc2c3c1O[C@H]1[C@@H](O)C=C[C@H]4[C@@H](C2)[N@@+](C)([O-])CC[C@@]341`, the LD50 is 1600 mg/kg.

In the case of `CN1CCC(c2c[nH]c3ccccc23)C1` (configuration not stated), the LD50 is 413 mg/kg.

As for `O=C(O)c1ccc2c3c(ccc(C(=O)O)c13)C(=O)OC2=O`, the LD50 was 3510 mg/kg.

For the compound `CCCCS`, the LD50 was 1500 mg/kg.

As to `NC(=O)N/N=C/c1ccc([N+](=O)[O-])o1`, the LD50 is 590 mg/kg.

In the case of `O=C(Nc1cc(Cl)cc(Cl)c1O)c1c(O)c(Cl)cc(Cl)c1Cl`, the LD50 was 1000 mg/kg.

For `O=c1n(CC2CO2)c(=O)n(CC2CO2)n1CC1CO1` (configuration not stated), the LD50 was 250 mg/kg.

For `COP(=O)(OC)SC(P(=O)(OC)OC)=P(OC)(OC)OC`, the LD50 is 38 mg/kg.

Regarding `C=CCOc1ccccc1C(=O)NC1CCCCC1`, the LD50 was 1200 mg/kg.

For the compound `CC1(C)C2CCC1(C)C(Oc1ccc(N)cc1)C2` (configuration not stated), the LD50 was 660 mg/kg.

On to `NC(=O)COc1ccc(Cl)cc1Cl`, for which the LD50 was 1200 mg/kg.

Turning to `CCNC(=O)C(C)OC(=O)Nc1ccccc1` (configuration not stated), the LD50 was 11000 mg/kg.

In the case of `CC=CC=CC#N`, the LD50 was 712 mg/kg.

On to `CCCCCOC(C[n+]1ccccc1)c1ccc(C(C)C)cc1` (configuration not stated), for which the LD50 was 250 mg/kg.

Consider `NCCOC(=O)C=CC(=O)OCCN`, for which the LD50 was 4920 mg/kg.

As to `C=CC(=C)Cl`, the LD50 is 450 mg/kg.

`CNc1c(Cl)cc(C(=O)NC2CC2)cc1Cl`: the LD50 was 262 mg/kg.

`COc1ccc(OC)c(Cc2cnc3nc(N)nc(N)c3c2C)c1`: the LD50 was 1170 mg/kg.

Regarding `COc1ccc(C=C2C(=O)N=C3c4ccccc4N=CN23)cc1`, the LD50 is 258 mg/kg.

In the case of `CC(=O)OC1(C)CC(C)C(=O)C(C(O)CC2CC(=O)NC(=O)C2)C1` (configuration not stated), the LD50 was 0.158 mg/kg.

`O=C1c2ccccc2C(=O)C1c1ccc(C(F)(F)F)cc1`: the LD50 was 198 mg/kg.

Consider `CC(C)(C)OC(=O)N1CC(=O)C1`, for which the LD50 was 2500 mg/kg.

For the compound `O=C(c1ccccc1)c1ccc(O)cc1O`, the LD50 is 8600 mg/kg.

In the case of `O=C(O)Cc1ccc2c(c1)C(=O)c1ccccc1CO2`, the LD50 was 143 mg/kg.

As for `CNC(N)=S`, the LD50 is 50 mg/kg.

For `CC(C)N1C(=O)c2ccccc2NS1(=O)=O`, the LD50 is 1100 mg/kg.

Take `O=C=Nc1ccc(Cc2ccc(N=C=O)cc2)cc1`: the LD50 is 9200 mg/kg.

Take `C#CCc1cc(COC(=O)C2C(C=C(C)C)C2(C)C)c(C)o1` (configuration not stated): the LD50 is 14000 mg/kg.

With `O=C(O)Cc1c(Cl)ccc(Cl)c1Cl`, the LD50 was 1780 mg/kg.

Take `CCCCN(N=O)C(N)=O`: the LD50 is 400 mg/kg.

On to `CCC1NC(=O)c2ccccc2O1` (configuration not stated), for which the LD50 is 1310 mg/kg.

As for `c1ccc(C2CCCCC2)c(OCC2CNCCO2)c1` (configuration not stated), the LD50 was 1120 mg/kg.

As to `CCOC(CC(OCC)OCC)OCC`, the LD50 is 1610 mg/kg.

As for `CN1C2CCC1CC(OC(=O)C(C)(CO)c1ccccc1)C2` (configuration not stated), the median lethal dose (LD50) is 1100 mg/kg.

As to `CC(=O)C(C)=Cc1ccccc1`, the LD50 is 4100 mg/kg.

In the case of `CCN(CC)CCOc1ccc(C2=C(c3ccccc3)Cc3cc(OC)ccc32)cc1`, the LD50 was 547 mg/kg.

Take `CNC(C)Cc1ccccc1OC` (configuration not stated): the LD50 is 630 mg/kg.

Consider `CCCCCCCCCc1ccc(O)cc1`, for which the LD50 was 1620 mg/kg.

`CN(N=O)c1ccccn1`: the LD50 is 60 mg/kg.

As to `CCO/N=C(\OC(=O)c1ccccc1)c1c(OC)ccc(Cl)c1OC`, the LD50 is 15000 mg/kg.

Consider `NC(Cl)(Cl)c1nc(Cl)c(Cl)c(Cl)c1Cl`, for which the LD50 is 1500 mg/kg.
